# Measurements from paper PMC9352109, “Novel silkworm (Bombyx mori) sulfotransferase swSULT ST3 is involved in metabolism of polyphenols from mulberry leaves” (PLoS ONE, 2022).
# Target: T1, AKR2E8 (Bombyx mori, UniProt A0A8D5RRY4)
# T1 sequence (A0A8D5RRY4 1-331 limits assumed): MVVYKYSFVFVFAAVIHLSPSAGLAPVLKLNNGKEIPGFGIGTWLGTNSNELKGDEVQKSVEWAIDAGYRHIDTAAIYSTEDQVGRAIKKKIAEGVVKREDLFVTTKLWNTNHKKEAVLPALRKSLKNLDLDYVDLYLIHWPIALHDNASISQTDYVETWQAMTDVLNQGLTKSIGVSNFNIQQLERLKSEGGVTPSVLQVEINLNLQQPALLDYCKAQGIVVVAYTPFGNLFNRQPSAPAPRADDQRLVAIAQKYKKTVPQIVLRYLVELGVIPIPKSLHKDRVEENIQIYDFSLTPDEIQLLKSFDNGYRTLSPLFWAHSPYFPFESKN
# Test: NADPH-linked benzaldehyde reduction
# Assay type: biochemical
# Conditions: 0.1 mM NADPH, 25 μM benzaldehyde, 0.1 M potassium phosphate pH 7.4
# Description: NADPH-linked benzaldehyde reduction on AKR2E8
row,Structure (SMILES),IC50 [nM]
1,O=c1c(O)c(-c2ccc(O)cc2)oc2cc(O)cc(O)c12 [Kaempferol],460 ± 120
2,O=c1c(O)c(-c2ccc(O)c(O)c2)oc2cc(O)cc(O)c12 [Quercetin],65 ± 1.8
3,Oc1ccc(/C=C/c2cc(O)cc(O)c2)cc1 [Resveratrol],550 ± 23

# Second part, the molecule after the results:
row,IC50 [nM],Structure (SMILES)
1,170 ± 10,O=c1cc(-c2ccc(O)cc2)oc2cc(O)cc(O)c12 [Apigenin]
2,34 ± 2.7,O=c1c(-c2ccc(O)cc2)coc2cc(O)ccc12 [Daidzein]
3,18 ± 1.4,O=c1c(-c2ccc(O)cc2)coc2cc(O)cc(O)c12 [Genistein]
